# Experimental data published in patent publication US20120034613A1, “Apparatus and Method for Testing Relationships Between Gene Expression and Physical Appearance of Skin” (NSE Products, Inc., priority 2010, published 2012).
# Test system: EpidermFT™ Skin Model (EFT-400) full thickness skin cultures
# Assay: Affymetrix GeneChip HG U133 Plus 2.0 microarray global gene expression, agent-exposed vs untreated skin cultures
# Type: cell-based, human
# [1] = probe 239272_at, Table 3 skin structure
# [2] = probe 1552319_a_at, 0.5%, 24 hr
# [3] = probe 1552578_a_at, 0.5%, 24 hr
# [4] = probe 1554252_a_at, 0.5%, 24 hr
# [5] = probe 1554741_s_at, 0.5%, 24 hr
# [6] = probe 1554921_a_at, 0.5%, 24 hr
# [7] = probe 1554980_a_at, 0.5%, 24 hr
# [8] = probe 1554997_a_at, 0.5%, 24 hr
# [9] = probe 1555103_s_at, 0.5%, 24 hr
# [10] = probe 1555416_a_at, 0.5%, 24 hr
# [11] = probe 1556410_a_at, 0.5%, 24 hr
# [12] = probe 1558143_a_at, 0.5%, 24 hr
# [13] = tissue exposed to salicin, skin structure gene, Table 4
# [14] = tissue exposed to salicin, skin structure gene, Table 4, direction down
# [15] = tissue exposed to salicin, skin structure gene, Table 4, direction up
smiles,measurement,setting,value
"OCc1ccccc1O[C@@H]1O[C@H](CO)[C@@H](O)[C@H](O)[C@H]1O [Salicin, 2-(Hydroxymethyl)phenyl β-D-glucospyranoside]",Direction NFKBIZ,"probe 223217_s_at, 0.5%, 24 hr",up
same,Fold change NFKBIZ,"probe 223217_s_at, 0.5%, 24 hr",2.35
same,Direction SLC25A19,"probe 223222_at, 0.5%, 24 hr",up
same,Fold change SLC25A19,"probe 223222_at, 0.5%, 24 hr",2.243
same,Direction HAS3,"probe 223541_at, 0.5%, 24 hr",down
same,Fold change HAS3,"probe 223541_at, 0.5%, 24 hr",3.713
same,Direction TRPC4,"probe 224220_x_at, 0.5%, 24 hr",up
same,Fold change TRPC4,"probe 224220_x_at, 0.5%, 24 hr",2.708
same,Direction CNFN,"probe 224329_s_at, 0.5%, 24 hr",down
same,Fold change CNFN,"probe 224329_s_at, 0.5%, 24 hr",5.442
same,Direction H2AFJ,"probe 225245_x_at, 0.5%, 24 hr",down
same,Fold change H2AFJ,"probe 225245_x_at, 0.5%, 24 hr",2.328
same,Direction ABHD2,"probe 225337_at, 0.5%, 24 hr",up
same,Fold change ABHD2,"probe 225337_at, 0.5%, 24 hr",2.704
same,Direction NRP2,"probe 225566_at, 0.5%, 24 hr",up
same,Fold change NRP2,"probe 225566_at, 0.5%, 24 hr",3.198
same,Direction FGF11,"probe 227271_at, 0.5%, 24 hr",down
same,Fold change FGF11,"probe 227271_at, 0.5%, 24 hr",2.672
same,Direction HS3ST3B1,"probe 227361_at, 0.5%, 24 hr",up
same,Fold change HS3ST3B1,"probe 227361_at, 0.5%, 24 hr",3.41
same,Direction SERPINE2,"probe 227487_s_at, 0.5%, 24 hr",up
same,Fold change SERPINE2,"probe 227487_s_at, 0.5%, 24 hr",3.148
same,Direction ASAM,"probe 228082_at, 0.5%, 24 hr",up
same,Fold change ASAM,"probe 228082_at, 0.5%, 24 hr",2.108
same,Direction IL20RB,"probe 228575_at, 0.5%, 24 hr",down
same,Fold change IL20RB,"probe 228575_at, 0.5%, 24 hr",10.04
same,Direction SCN9A,"probe 229199_at, 0.5%, 24 hr",up
same,Fold change SCN9A,"probe 229199_at, 0.5%, 24 hr",3.818
same,Direction CREB5,"probe 229228_at, 0.5%, 24 hr",up
same,Fold change CREB5,"probe 229228_at, 0.5%, 24 hr",9.768
same,Direction TNS4,"probe 230398_at, 0.5%, 24 hr",down
same,Fold change TNS4,"probe 230398_at, 0.5%, 24 hr",2.738
same,Direction SLC20A1,"probe 230494_at, 0.5%, 24 hr",up
same,Fold change SLC20A1,"probe 230494_at, 0.5%, 24 hr",2.526
same,Direction KLF15,"probe 231015_at, 0.5%, 24 hr",up
same,Fold change KLF15,"probe 231015_at, 0.5%, 24 hr",2.338
same,Direction KGFLP2,"probe 231031_at, 0.5%, 24 hr",up
same,Fold change KGFLP2,"probe 231031_at, 0.5%, 24 hr",3.34
same,Direction EPPK1,"probe 232165_at, 0.5%, 24 hr",down
same,Fold change EPPK1,"probe 232165_at, 0.5%, 24 hr",12.4
same,Direction ELOVL3,"probe 234513_at, 0.5%, 24 hr",down
same,Fold change ELOVL3,"probe 234513_at, 0.5%, 24 hr",2.048
same,Direction KRTCAP3,"probe 235148_at, 0.5%, 24 hr",down
same,Fold change KRTCAP3,"probe 235148_at, 0.5%, 24 hr",2.158
same,Direction GSTA4,"probe 235405_at, 0.5%, 24 hr",down
same,Fold change GSTA4,"probe 235405_at, 0.5%, 24 hr",3.3
same,Direction SGPP2,"probe 238567_at, 0.5%, 24 hr",down
same,Fold change SGPP2,"probe 238567_at, 0.5%, 24 hr",5.641
same,Direction MMP28,[1],down
same,Fold change MMP28,[1],4.074
same,Direction MMP28,"probe 239273_s_at, 0.5%, 24 hr",down
same,Fold change MMP28,"probe 239273_s_at, 0.5%, 24 hr",2.678
same,Direction DSEL,"probe 244852_at, 0.5%, 24 hr",up
same,Fold change DSEL,"probe 244852_at, 0.5%, 24 hr",2.251
same,Direction KLK8,[2],down
same,Fold change KLK8,[2],4.867
same,Direction MYO3B,[3],up
same,Fold change MYO3B,[3],2.338
same,Direction SNX21,"probe 1553960_at, 0.5%, 24 hr",down
same,Fold change SNX21,"probe 1553960_at, 0.5%, 24 hr",2.031
same,Direction LASS3,[4],down
same,Fold change LASS3,[4],15.34
same,Direction FGF7 /// KGFLP1 /// KGFLP2,[5],up
same,Fold change FGF7 /// KGFLP1 /// KGFLP2,[5],2.506
same,Direction SCEL,[6],down
same,Fold change SCEL,[6],6.1
same,Direction ATF3,[7],up
same,Fold change ATF3,[7],2.623
same,Direction PTGS2,[8],up
same,Fold change PTGS2,[8],6.813
same,Direction FGF7,[9],up
same,Fold change FGF7,[9],2.35
same,Direction ALOX15B,[10],down
same,Fold change ALOX15B,[10],2.215
same,Direction KRTAP19-1,[11],up
same,Fold change KRTAP19-1,[11],24.65
same,Direction BCL2L11,[12],up
same,Fold change BCL2L11,[12],2.347
same,Direction LCE1E,"probe 1559224_at, 0.5%, 24 hr",down
same,Fold change LCE1E,"probe 1559224_at, 0.5%, 24 hr",4.811
same,Direction LCE1B,"probe 1560531_at, 0.5%, 24 hr",down
same,Fold change LCE1B,"probe 1560531_at, 0.5%, 24 hr",71.235
same,Direction ITGB1,"probe 1561042_at, 0.5%, 24 hr",up
same,Fold change ITGB1,"probe 1561042_at, 0.5%, 24 hr",2.151
same,Direction FLG2,"probe 1569410_at, 0.5%, 24 hr",down
same,Fold change FLG2,"probe 1569410_at, 0.5%, 24 hr",45.91
same,Direction COL4A1 (211981_at),[13],up
same,Direction FBN2 (203184_at),[13],up
same,Direction FN1 (214702_at),[13],up
same,Direction FNDC3A (215910_s_at),[13],up
same,Direction FOXO1 (202724_s_at),[13],up
same,Direction IGFBP5 (211958_at),[13],up
same,Direction ITGB1 (1561042_at),[13],up
same,Direction KRT5 (201820_at),[13],down
same,Direction KRT9 (208188_at),[13],down
same,Direction MMP28 (239272_at),[13],down
same,Direction SOD2 (215078_at),[13],up
same,Direction TIMP3 (201150_s_at),[13],up
same,Direction TNC (216005_at),[13],up
same,Direction TNFAIP3 (202643_s_at),[13],up
same,Fold change KRT5 (201820_at),[14],3.737
same,Fold change KRT9 (208188_at),[14],3.737
same,Fold change MMP28 (239272_at),[14],4.074
same,Fold change COL4A1 (211981_at),[15],2.121
same,Fold change FBN2 (203184_at),[15],2.028
same,Fold change FN1 (214702_at),[15],2.71
same,Fold change FNDC3A (215910_s_at),[15],3.663
same,Fold change FOXO1 (202724_s_at),[15],2.098
same,Fold change IGFBP5 (211958_at),[15],2.712
same,Fold change ITGB1 (1561042_at),[15],2.151
same,Fold change SOD2 (215078_at),[15],5.712
same,Fold change TIMP3 (201150_s_at),[15],2.058
same,Fold change TNC (216005_at),[15],2.719
same,Fold change TNFAIP3 (202643_s_at),[15],6.915
